# pEC50, pIC50: −log10 of the molar value.
# Legend:
# [1] = Therapeutic index value was evaluated as the ratio of IC50/EC50; details: read-out: TI
# H9 [2] = test: Anti-HIV activity was evaluated as the concentration required to inhibit HIV-1 replication in H9 lymphocyte cells by 50%; assay type: functional, cell-based; details: Homo sapiens
# H9 [3] = test: Anti-HIV activity was evaluated as the concentration required to inhibit the growth of uninfected H9 lymphocyte cells by 50%; assay type: functional, cell-based; details: Homo sapiens
pEC50 (H9 [2]),SMILES,selectivity ratio [1],pIC50 (H9 [3])
–,CC1(C)Oc2ccc3ccc(=O)oc3c2[C@@H](OC(=O)C23CCC(C)(C(=O)O2)C3(C)C)[C@H]1OC(=O)C12CCC(C)(C(=O)O1)C2(C)C (stereo partly drawn),137000,–
8.14,Cc1cc(=S)oc2c3c(ccc12)OC(C)(C)[C@H](OC(=O)C12CCC(C)(C(=O)O1)C2(C)C)[C@@H]3OC(=O)C12CCC(C)(C(=O)O1)C2(C)C (stereo partly drawn),> 21300,< 3.82
5.61,CC1(C)Oc2ccc3c(-c4ccccc4)cc(=S)oc3c2[C@@H](OC(=O)C23CCC(C)(C(=O)O2)C3(C)C)[C@H]1OC(=O)C12CCC(C)(C(=O)O1)C2(C)C (stereo partly drawn),> 56.6,< 3.85
6.89,CCCc1cc(=S)oc2c3c(ccc12)OC(C)(C)[C@H](OC(=O)C12CCC(C)(C(=O)O1)C2(C)C)[C@@H]3OC(=O)C12CCC(C)(C(=O)O1)C2(C)C (stereo partly drawn),> 1150,< 3.83
7.54,CC1(C)Oc2ccc3ccc(=S)oc3c2[C@@H](OC(=O)C23CCC(C)(C(=O)O2)C3(C)C)[C@H]1OC(=O)C12CCC(C)(C(=O)O1)C2(C)C (stereo partly drawn),> 5390,< 3.81

# — ChEMBL document CHEMBL1130836, “Anti-AIDS agents. 31. Synthesis and anti-HIV activity of 4-substituted 3',4'-di-O-(-)-camphanoyl-(+)-cis-khellactone (DCK) thiolactone analogs” (Bioorg Med Chem Lett, 1998)
